{"source": "patent US20050256131A1", "about": "“Pharmaceutical active substance combination and the use thereof” (priority 2002, published 2005)", "key": {"Parkinson's disease": {"system": "Parkinson's disease", "test": "clinical studies / series of tests on parkinsonian patients", "type": "in vivo, human", "conditions": "for antidepressant effect in parkinsonian patients: especially those treated in parallel with dopamine-containing medicaments; for necessary dose of dopamine to be taken: parkinsonian patients taking dopamine as supplement; for depot effect / release of the additionally taken dopamine in the patient's body: patients taking dopamine at the same time; for influence of additional intake on the effect of nefazodone or trazodone: taken in addition to nefazodone or trazodone", "protocol": "The tablets normally comprise the active substance in an amount of 100 mg or 200 mg. […] For example, if a total dose of 500 mg a day is intended, it is possible to take 200 mg in the morning, 200 mg at midday and 100 mg in the evening.\nThe medicament with the active substance trazodone was administered to the patients in the evening. […] However, to date, for the aforementioned reasons, the patients have been given the dopamine to be administered in the evening in conjunction with a depot composition."}, "[1]": {"conditions": "cited from earlier work; for side effects affecting the nervous system / psychomotor performance: manufacturer's information for use or statements in the literature"}}, "note": "“Also recorded” adds a separate entry of the source."}
{"smiles": "CCc1nn(CCCN2CCN(c3cccc(Cl)c3)CC2)c(=O)n1CCOc1ccccc1", "note": "[nefazodone, 2-[3-[4-(3-chlorophenyl)-1-piperazinyl]propyl]-5-ethyl-4-(2-phenoxyethyl)-2H-1,2,4-triazol-3(4H)-one]", "values": [{"measurement": "antidepressant effect in parkinsonian patients", "setting": "Parkinson's disease", "result": "particularly evident"}, {"measurement": "tolerability", "setting": "Parkinson's disease; human, in vivo", "result": "generally well tolerated"}, {"measurement": "daily dopamine dose as fraction of dose before treatment", "setting": "Parkinson's disease; one patient with disease in advanced stage", "result": "about one third"}, {"measurement": "therapeutic effect in the treatment of the symptoms of Parkinson's disease", "setting": "Parkinson's disease; parkinsonian patients", "result": "exceptionally good therapeutic effect"}, {"measurement": "dopamine dose necessary on additional intake, relative to dose previously necessary on treatment with dopamine alone", "setting": "Parkinson's disease; parkinsonian patients regularly taking L-dopamine, simultaneous intake of nefazodone", "result": "one half or even one third"}, {"measurement": "necessary dose of dopamine to be taken", "setting": "Parkinson's disease", "result": "reduction in the necessary dose of dopamine"}, {"measurement": "side effect of dopamine: uncontrolled motor activity in the patient", "setting": "Parkinson's disease; patients on Parkinson's medicaments comprising dopamine", "result": "positively influenced"}, {"measurement": "depot effect / release of the additionally taken dopamine in the patient's body", "setting": "Parkinson's disease", "result": "released more slowly"}, {"measurement": "side effects affecting the nervous system / psychomotor performance", "setting": "[1]", "result": "impairments of the coordination of movements (ataxia) and slowing of movements"}]}
{"smiles": "O=C(O)COCCN1CCN(C(c2ccccc2)c2ccc(Cl)cc2)CC1", "note": "(centres unmarked) [cetirizine]", "values": [{"measurement": "therapeutic effect in the treatment of the symptoms of Parkinson's disease", "setting": "Parkinson's disease; parkinsonian patients", "result": "particularly good effect"}, {"measurement": "influence of additional intake on the effect of nefazodone or trazodone", "setting": "Parkinson's disease; parkinsonian patients", "result": "enhances the effect of the nefazodone or trazodone"}, {"measurement": "central sedative effect", "setting": "[1]; compared with other antihistamines, statements in the literature", "result": "only a slight central sedative effect"}, {"measurement": "side effects affecting the nervous system / psychomotor performance", "setting": "[1]", "result": "reduction in psychomotor performance"}]}
{"smiles": "O=c1n(CCCN2CCN(c3cccc(Cl)c3)CC2)nc2ccccn12", "note": "[trazodone, 2-[3-[4-(3-chlorophenyl)-1-piperazinyl]propyl]-1,2,4-triazolo[4,3-a]pyridin-3(2H)-one]", "values": [{"measurement": "antidepressant effect in parkinsonian patients", "setting": "Parkinson's disease", "result": "particularly evident"}, {"measurement": "therapeutic effect in the treatment of the symptoms of Parkinson's disease", "setting": "Parkinson's disease; parkinsonian patients", "result": "exceptionally good therapeutic effect"}, {"measurement": "tiredness / sleep-promoting effect after intake", "setting": "Parkinson's disease; parkinsonian patients", "result": "causes a certain tiredness; also recorded: sleep-promoting effect"}, {"measurement": "necessary dose of dopamine to be taken", "setting": "Parkinson's disease", "result": "reduction in the necessary dose of dopamine"}, {"measurement": "depot effect / release of the additionally taken dopamine in the patient's body", "setting": "Parkinson's disease", "result": "causes a depot effect"}]}
{"smiles": "CC(=O)Oc1ccccc1C(=O)O", "note": "[acetylsalicylic acid]", "values": [{"measurement": "influence of additional intake on the effect of nefazodone or trazodone", "setting": "Parkinson's disease; parkinsonian patients", "result": "can also assist the mentioned positive effects of nefazodone"}]}
{"smiles": "Cn1c(=O)c2c(ncn2C)n(C)c1=O", "note": "[caffeine]", "values": [{"measurement": "influence of additional intake on the effect of nefazodone or trazodone", "setting": "Parkinson's disease; parkinsonian patients", "result": "assists the mentioned positive effect of nefazodone"}]}
